Like-named read-outs stand apart in the source and are kept apart here.
Legend:
paw pressure = assay: Randall-Selitto (RS) paw pressure test; format: in vivo; conditions: oral administration; read-out: RS minimum effective dose, MED
Text: (§1) The test procedures used to determine the analgesic activities of the compounds have been described in detail in the prior art and are as follows: The acetylcholine-induced abdominal constriction test, which is a primary analgesic screening test designed to measure the ability of a test agent to suppress acetylcholine-induced abdominal constriction in mice, described by Collier et al., Brit. J. Pharmacol. Chemotherap. 32, 295 (1968); a modification of the anti-bradykinin test, which is also a primary analgesic screening procedure, described by Berkowitz et al., J. Pharmacol. Exptl. Therap. 177, 500-508 (1971), Blane et al., J. Pharm. Pharmacol. 19, 367-373 (1967), Botha et al., Eur. J. Pharmacol. 6, 312-321 (1969) and Deffenu et al., J. Pharm. Pharmacol. 18, 135 (1966); and the Randall-Selitto analgesic test described by Randall and Selitto, Arch. Int. Pharmacodyn., 111, 409-419 (1957).
(§2) Data in the developing adjuvant arthritis (AA) and plasma fibronectin (FN) assays are expressed as percent inhibition, i.e. inhibition of non-injected paw inflammation (NIP) and injected paw (RPV) and lowering of plasma fibronectin, the asterisks * and ** indicating statistical significance at the p<0.01 and p<0.05 levels, respectively. Compounds are considered active at p<0.05 level. Non-statistically significant results are recorded as "------ ". In the acetylcholine-induced abdominal constriction test, the test compounds were administered either as suspensions in gum tragacanth (GT) or as aqueous solutions prepared by addition of just sufficient dilute aqueous methanesulfonic acid (MS) or dilute aqueous lactic acid (LA) to dissolve the compound. The compounds are identified by the example number above where their preparations are described. All data in the anti-bradykinin, rat writhing and Randall-Selitto tests were obtained on oral administration.

[1] = system: acetylcholine-induced abdominal constriction; assay: acetylcholine-induced abdominal constriction test (ACH); format: in vivo; set-up: key to ACH remark (Depr. = depressant): The abbreviations IA and Depr. represent, respectively, inactive and depressant; The abbreviations IA and Depr. represent, respectively, inactive and depressant; conditions: mice; for ACH remark (Depr. = depressant): remark beside the ED50
Summary of the method: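 Compounds were given as gum tragacanth suspensions or as aqueous solutions dissolved with dilute methanesulfonic or lactic acid.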

[2] = system: acetic acid-induced writhing; assay: acetic acid-induced writhing assay in the rat (RW); format: in vivo; conditions: for ED50: Rattus norvegicus, po, oral administration; for RW percent inhibition at dose 30: oral, dose level 30
Summary of the method: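 Rats received the test compounds by the oral route. The read-out was abdominal writhing.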

[3] = system: mouse vasa deferentia preparation; assay: mouse vas deferens test (MVD); format: cell-based; conditions: Mus musculus, inhibition of contractions, in vitro; active at 5.0 μM or less
Text: It has been shown previously that smoking marijuana reduces intraocular pressure in man [Helper and Frank, Marijuana Smoking and Intraocular Pressure., J. Am. Med. Assoc. 217, 1392 (1971)]. Topical application or systemic injection of delta-9 tetrahydrocannabinol, a principal active ingredient in marijuana, also reduces intraocular pressure [Purnell and Gregg, delta-9 Tetrahydrocannabinol, Euphoria and Intraocular Pressure in Man., Ann. Opth. 7, 921-923 (1975); Green and Pederson, Effect of delta-9 Tetrahydrocannabinol on Aqueous Dynamics and Ciliary Body Permeability in the Rabbit Eye., Exptl. Eye Research 15, 499-507 (1973); Colasanti, Craig and Allara, Intraocular Pressure, Ocular Toxicity and Neurotoxicity after Administration of Cannabinol or Cannibigerol, Exptl. Eye Research 39, 252-259 (1984)]. Similarly, synthetic cannabinoids also reduce intraocular pressure [Green, Symunds, Oliver and Elijah, Intraocular Pressure Following Systemic Administration of Cannabinoids., Curr. Eye Research 2, 247-253 (1982); Tiedeman, Shields, Weber, Crow, Coccetto, Harris and Howes, Opthalmology, 88, 270-277 (1981); Colasanti et al., supra]. Cannabinoid receptor binding sites can be defined as those to which radio-labelled 4-(1,1-dimethylheptyl)-2,3'-dihydroxy-6'alpha-(3-hydroxypropyl)-1', 2', 3', 4', 5', 6'-hexahydrobiphenyl (CP 55940) binds in a specific and saturable manner and the binding sites are heterogeneously distributed in the brain [Devane, Dysarz, Johnson, Melvin and Howlett, Determination and Characterization of a Cannabinoid Receptor in Rat Brain, Molecular Pharm. 34, 605-613 (1988)]. Natural and synthetic cannabinoids and certain of the compounds of the present invention, as more particularly described above, bind to CP 55940 binding sites. […] It is believed that agonist activity at the cannabinoid receptor mediates the anti-glaucoma actions of cannabinoids, and that agonist activity at this receptor correlates with ocular pressure lowering actions in man. Accordingly the cannabinoid receptor agonist activity of the compounds of the present invention indicate their usefulness in reducing ocular pressure.

bradykinin = assay: anti-bradykinin test (BDK); format: in vivo; set-up: key to BDK result (po): The abbreviations IA and Depr. represent, respectively, inactive and depressant; The abbreviations IA and Depr. represent, respectively, inactive and depressant
Text: as §1, §2

[4] = system: adjuvant induced arthritis; assay: developing adjuvant arthritis (AA) assay; format: in vivo; set-up: key: Non-statistically significant results are recorded as "------ "; conditions: arthritic rats; printed * = p<0.01, ** = p<0.05
Summary of the method: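 Rats given complete Freund's adjuvant into the right hindpaw on day 1. Drug treatment begins while disease is developing but not yet irreversible. Swelling of non-injected (NIP) and injected (RPV) paws read 15–20 days later, expressed as percent inhibition; active at p<0.05.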

[5] = molecular target: T1, Cannabinoid receptor (CP 55940 binding sites) (Rattus norvegicus, UniProt P20272); assay: CP 55940 binding assay
T1 construct: from tissue

[6] = Mus musculus, Table 9, Examples, no route marked in the cell, read-out: ACH ED50
[7] = Mus musculus, iv, Table 9, iv, read-out: ACH ED50 (iv)

T1 sequence (P20272 whole entry): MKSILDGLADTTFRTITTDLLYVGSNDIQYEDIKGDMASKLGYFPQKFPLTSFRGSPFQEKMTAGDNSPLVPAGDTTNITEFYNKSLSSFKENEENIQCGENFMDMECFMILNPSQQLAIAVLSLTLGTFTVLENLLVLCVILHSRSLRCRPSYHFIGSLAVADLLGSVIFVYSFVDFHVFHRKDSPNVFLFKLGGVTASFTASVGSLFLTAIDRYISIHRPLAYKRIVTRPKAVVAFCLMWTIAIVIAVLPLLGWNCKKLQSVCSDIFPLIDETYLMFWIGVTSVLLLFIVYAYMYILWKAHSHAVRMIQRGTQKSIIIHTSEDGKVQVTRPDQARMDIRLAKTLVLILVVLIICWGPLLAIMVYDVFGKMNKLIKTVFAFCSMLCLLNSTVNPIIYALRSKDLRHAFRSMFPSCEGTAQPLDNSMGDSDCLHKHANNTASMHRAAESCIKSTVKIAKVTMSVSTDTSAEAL

COc1ccc(C(=O)c2c(C)n(CC3CCCN3C)c3ccccc23)cc1 (racemic) [Example 2E]
minimal effective dose (paw pressure): 0.03 mg/kg | ED50 [1, 6]: 27 mg/kg | ED50 [1, 7]: 6 mg/kg | ED50 [2]: 6 mg/kg | IC50 [3]: 63 nM | BDK result (po) (bradykinin; po): IA | NIP: percent inhibition of non-injected paw inflammation [4]: -- | RPV: percent inhibition of injected paw [4]: 24%

COc1ccc(C(=O)c2c(C)n(C[C@@H]3CC[C@@H](C)N3C)c3ccccc23)cc1 (relative stereo) [Example 1Y]
ED50 [1, 6]: 21 mg/kg | ED50 [1, 7]: 2 mg/kg | ED50 ([1]; Mus musculus, sc, Table 9, sc, read-out: ACH ED50 (sc)): 10 mg/kg | ED50 [2]: 3 mg/kg | IC50 [3]: 52 nM | NIP: percent inhibition of non-injected paw inflammation [4]: 67% | RPV: percent inhibition of injected paw [4]: 48%

Cc1c(C(=O)c2cccc3ccccc23)c2ccccc2n1CC1CCCN(C)C1 (stereo not shown) [Example 1M]
minimal effective dose (paw pressure): 0.1 mg/kg | ED50 [1, 7]: 7 mg/kg | inhibition in vivo at 100 mg/kg ([1]; Mus musculus, Table 9, dose level 100, read-out: ACH percent inhibition at dose 100): 25% | IC50 [3]: 91 nM

COc1ccc(C(=O)c2c(C)n(C3CCN(C)C3)c3ccccc23)cc1 (stereo not shown) [Example 1X]
ED50 [1, 6]: 20 mg/kg | ED50 [2]: 12 mg/kg | IC50 [3]: 150 nM | NIP: percent inhibition of non-injected paw inflammation [4]: -- | RPV: percent inhibition of injected paw [4]: 23%

COc1ccc(C(=O)c2c(C)n(CC3CCN(C)CC3)c3ccccc23)cc1 [Example 2AH]
ED50 [1, 6]: 4 mg/kg | ACH ED50 ([1]; Table 9, Examples, no route marked in the cell): 5 mg/kg | RW percent inhibition at dose 30 [2]: 74% | BDK percent inhibition at dose 3 (bradykinin; oral, dose level 3): 30%

COc1ccc(C(=O)c2c(C)n(CCC3CCCN3C)c3ccccc23)cc1 (stereo not shown) [Example 2B]
minimal effective dose (paw pressure): 10 mg/kg | ED50 [1, 6]: 32 mg/kg | ED50 [1, 7]: 8 mg/kg | ACH ED50 ([1]; Table 9, Examples, no route marked in the cell, listed as 2B(HCl)): 23 mg/kg | ED50 [2]: 25 mg/kg

COc1ccc(C(=O)c2c(C)n(CC3CCCN(C)C3)c3ccccc23)cc1 (stereo not shown) [Example 2D]
ED50 [1, 6]: 8 mg/kg | ED50 [2]: 2 mg/kg | ED50 (bradykinin; oral administration): 2.4 mg/kg | NIP: percent inhibition of non-injected paw inflammation [4]: 99% | RPV: percent inhibition of injected paw [4]: 78%

COc1ccc(C(=O)c2cn(CCC3CCCCN3C)c3ccccc23)cc1 (stereo not shown) [Example 2F]
minimal effective dose (paw pressure): 3 mg/kg | ED50 [1, 6]: 45 mg/kg | ED50 [1, 7]: 4 mg/kg

COc1ccc(C(=O)c2c(C)n(CC3CCCCN3C)c3ccccc23)cc1 (stereo not shown) [Example 2H]
ED50 [1, 6]: 33 mg/kg | ED50 [2]: 22 mg/kg | IC50 [3]: 134 nM | NIP: percent inhibition of non-injected paw inflammation [4]: 69% | RPV: percent inhibition of injected paw [4]: 51%

COc1ccc(C(=O)c2cn(CC3CCCCN3C)c3ccccc23)cc1 (stereo not shown) [Example 2J]
ED50 [1, 6]: 6 mg/kg | ACH remark (Depr. = depressant) ([1]; Table 9): Depr. | ED50 [2]: 0.5 mg/kg | IC50 [3]: 3 nM | NIP: percent inhibition of non-injected paw inflammation [4]: 66% | RPV: percent inhibition of injected paw [4]: 27%

CN1CCCCC1Cn1cc(C(=O)c2cccc3ccccc23)c2ccccc21 (stereo not shown) [Example 2P]
ED50 [1, 6]: 9 mg/kg | ED50 [1, 7]: 0.03 mg/kg | ACH ED50 (iv) ([1]; Table 9, iv): 0.05 mg/kg | ACH remark (Depr. = depressant) ([1]; Table 9): Depr. | RW percent inhibition at dose 30 [2]: 98% | IC50 [5]: 1.4 nM | IC50 [3]: 0.22 nM

Cc1c(C(=O)c2cccc3ccccc23)c2ccccc2n1CC1CCCCN1C (stereo not shown) [Example 2R]
ED50 [1, 6]: 22 mg/kg | RW percent inhibition at dose 30 [2]: 100% | IC50 [3]: 1 nM | NIP: percent inhibition of non-injected paw inflammation [4]: 57% | RPV: percent inhibition of injected paw [4]: 29%
